# Toxic doses and inconclusive results are not listed.
# Test system: L1210 leukemia ip in BDF1 mice, survival T/C
# Test: NCI In Vivo Anticancer Drug Screen. Data for tumor model L1210 Leukemia (intraperitoneal) in B6D2F1 (BDF1) mice
# Conditions: endpoint: mean survival time, higher = longer survival
# How it was run: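 Ratio derived from survival: compound-dosed mice over vehicle-dosed mice, all bearing a transplantable tumor.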
# [1] = dose: 75.0 mg/kg/injection, schedule: Q01DX001 (ip), vehicle: carboxymethylcellulose (CMC)
# [2] = dose: 150.0 mg/kg/injection, schedule: Q01DX001 (ip), vehicle: carboxymethylcellulose (CMC)
# [3] = dose: 100.0 mg/kg/injection, schedule: Q04DX003 (ip), vehicle: saline with Tween-80
# [4] = dose: 200.0 mg/kg/injection, schedule: Q04DX003 (ip), vehicle: saline with Tween-80
# [5] = dose: 400.0 mg/kg/injection, schedule: Q04DX003 (ip), vehicle: saline with Tween-80
# [6] = dose: 100.0 mg/kg/injection, schedule: Q01DX009 (ip), vehicle: Klucel (hydroxypropylcellulose) (HPC)
# [7] = dose: 100.0 mg/kg/injection, schedule: Q04DX003 (ip), vehicle: Klucel (hydroxypropylcellulose) (HPC)
# [8] = dose: 200.0 mg/kg/injection, schedule: Q01DX009 (ip), vehicle: Klucel (hydroxypropylcellulose) (HPC)
# [9] = dose: 200.0 mg/kg/injection, schedule: Q04DX003 (ip), vehicle: Klucel (hydroxypropylcellulose) (HPC)
# [10] = dose: 400.0 mg/kg/injection, schedule: Q01DX009 (ip), vehicle: Klucel (hydroxypropylcellulose) (HPC)
# [11] = dose: 400.0 mg/kg/injection, schedule: Q04DX003 (ip), vehicle: Klucel (hydroxypropylcellulose) (HPC)
# [12] = dose: 100.0 mg/kg/injection, schedule: Q01DX001 (ip), vehicle: carboxymethylcellulose (CMC)
# [13] = dose: 200.0 mg/kg/injection, schedule: Q01DX001 (ip), vehicle: carboxymethylcellulose (CMC)
# [14] = dose: 400.0 mg/kg/injection, schedule: Q01DX001 (ip), vehicle: carboxymethylcellulose (CMC)
compound,measurement,setting,value
O=C(O)C(=O)c1ccc(-c2ccccc2)cc1,T/C,"dose: 5.0 mg/kg/injection, schedule: Q01DX Z (ip), vehicle: carboxymethylcellulose (CMC)",102 % of control
same,T/C,"dose: 10.0 mg/kg/injection, schedule: Q01DX Z (ip), vehicle: carboxymethylcellulose (CMC)",100 % of control
same,T/C,"dose: 20.0 mg/kg/injection, schedule: Q01DX Z (ip), vehicle: carboxymethylcellulose (CMC)",94 % of control
same,T/C,"dose: 40.0 mg/kg/injection, schedule: Q01DX Z (ip), vehicle: carboxymethylcellulose (CMC)",100 % of control
same,T/C,[1],101 % of control
same,T/C,[2],101 % of control
COc1ccc(C(C)c2ccccc2)cc1 (stereo not given),T/C,[3],98 % of control
same,T/C,[4],95 % of control
same,T/C,[5],93 % of control
CCC(C)c1cccc(OP(=O)(CC(C)CC(C)(C)C)Oc2ccccc2C(C)CC)c1 (stereo not given),T/C,"dose: 50.0 mg/kg/injection, schedule: Q01DX001 (ip), vehicle: acetone",94 % of control
same,T/C,"dose: 100.0 mg/kg/injection, schedule: Q01DX001 (ip), vehicle: acetone",94 % of control
same,T/C,"dose: 200.0 mg/kg/injection, schedule: Q01DX001 (ip), vehicle: acetone",93 % of control
Cc1ccnc(SCC(=O)O)n1,T/C,[6],108 % of control
same,T/C,[7],96 % of control
same,T/C,[8],95 % of control
same,T/C,[9],96 % of control
same,T/C,[10],90 % of control
same,T/C,[11],95 % of control
O=[N+]([O-])C1CC12c1ccccc1-c1ccccc12 (stereo not given),T/C,[1],106 % of control
same,T/C,[2],103 % of control
same,T/C,"dose: 300.0 mg/kg/injection, schedule: Q01DX001 (ip), vehicle: carboxymethylcellulose (CMC)",97 % of control
O=C(Cc1ccc(Cl)cc1)N/N=C/c1ccc([N+](=O)[O-])s1,T/C,"dose: 100.0 mg/kg/injection, schedule: Q04DX003 (ip), vehicle: saline",93 % of control
same,T/C,"dose: 200.0 mg/kg/injection, schedule: Q04DX003 (ip), vehicle: saline",93 % of control
same,T/C,"dose: 400.0 mg/kg/injection, schedule: Q04DX003 (ip), vehicle: saline",90 % of control
CCCCCSP(=S)(SCCCCC)c1ccccc1,T/C,"dose: 100.0 mg/kg/injection, schedule: Q04DX002 (ip), vehicle: saline with Tween-80",99 % of control
same,T/C,"dose: 200.0 mg/kg/injection, schedule: Q04DX002 (ip), vehicle: saline with Tween-80",105 % of control
same,T/C,"dose: 400.0 mg/kg/injection, schedule: Q04DX002 (ip), vehicle: saline with Tween-80",99 % of control
O=C(O)/C=C/C(=O)Nc1cccc2c1C(=O)c1ccccc1-2,T/C,[3],94 % of control
COc1nc(OC)n(C)c(=O)c1OP(=O)(OC)OC,T/C,"dose: 50.0 mg/kg/injection, schedule: Q01DX001 (ip), vehicle: saline",98 % of control
same,T/C,"dose: 100.0 mg/kg/injection, schedule: Q01DX001 (ip), vehicle: saline",93 % of control
same,T/C,"dose: 200.0 mg/kg/injection, schedule: Q01DX001 (ip), vehicle: saline",93 % of control
same,T/C,"dose: 400.0 mg/kg/injection, schedule: Q01DX001 (ip), vehicle: saline",95 % of control
O=S1(=O)C=C2CCCCC21 (stereo not given),T/C,[1],100 % of control
O=C(/C=N\O)c1ccncc1,T/C,[6],100 % of control
same,T/C,[8],94 % of control
O=[N+]([O-])C1C=NCCN=C1,T/C,"dose: 100.0 mg/kg/injection, schedule: Q04DX013 (ip), vehicle: carboxymethylcellulose (CMC)",96 % of control
same,T/C,"dose: 200.0 mg/kg/injection, schedule: Q04DX013 (ip), vehicle: carboxymethylcellulose (CMC)",94 % of control
same,T/C,"dose: 400.0 mg/kg/injection, schedule: Q04DX013 (ip), vehicle: carboxymethylcellulose (CMC)",94 % of control
O=C1CSCc2c1ccc1ccccc21,T/C,[3],106 % of control
same,T/C,[4],100 % of control
same,T/C,[5],108 % of control
CCC/C=C\COc1ccc(C(=O)OCC)cc1,T/C,"dose: 100.0 mg/kg/injection, schedule: Q04DX002 (ip), vehicle: other",111 % of control
same,T/C,"dose: 200.0 mg/kg/injection, schedule: Q04DX002 (ip), vehicle: other",108 % of control
same,T/C,"dose: 400.0 mg/kg/injection, schedule: Q04DX002 (ip), vehicle: other",97 % of control
COC(=O)C1=C(C(=O)OC)C2(C)OC1C1OC12 (stereo not given),T/C,"dose: 12.5 mg/kg/injection, schedule: Q01DX009 (ip), vehicle: Klucel (hydroxypropylcellulose) (HPC)",97 % of control
same,T/C,"dose: 25.0 mg/kg/injection, schedule: Q01DX009 (ip), vehicle: Klucel (hydroxypropylcellulose) (HPC)",90 % of control
Cn1cnc2cc(N=Cc3ccc(N(CCCl)CCCl)cc3)ccc21,T/C,"dose: 100.0 mg/kg/injection, schedule: Q04DX002 (ip), vehicle: Klucel (hydroxypropylcellulose) (HPC)",106 % of control
same,T/C,"dose: 200.0 mg/kg/injection, schedule: Q04DX002 (ip), vehicle: Klucel (hydroxypropylcellulose) (HPC)",106 % of control
same,T/C,"dose: 400.0 mg/kg/injection, schedule: Q04DX002 (ip), vehicle: Klucel (hydroxypropylcellulose) (HPC)",109 % of control
Cc1c(NC=O)c(=O)n(-c2ccccc2)n1C,T/C,[6],92 % of control
same,T/C,[7],107 % of control
same,T/C,[8],93 % of control
same,T/C,[9],100 % of control
same,T/C,[10],100 % of control
same,T/C,[11],105 % of control
CN1CCC2(CC1)C(C#N)C(=O)NC(=O)C2C#N (stereo not given),T/C,[12],92 % of control
same,T/C,[13],101 % of control
same,T/C,[14],95 % of control
O=C(CCCN1CCC2(CC1)OC(=O)N(c1ccccc1)C2=O)c1ccc(F)cc1,T/C,[7],89 % of control
same,T/C,[9],106 % of control
CC(C)(C)OC(=O)NCC(=O)NNC(=O)OC(C)(C)C,T/C,"dose: 100.0 mg/kg/injection, schedule: Q01DX009 (ip), vehicle: saline",92 % of control
same,T/C,"dose: 100.0 mg/kg/injection, schedule: Q04DX003 (ip), vehicle: saline sonified",101 % of control
same,T/C,"dose: 200.0 mg/kg/injection, schedule: Q01DX009 (ip), vehicle: saline",89 % of control
same,T/C,"dose: 200.0 mg/kg/injection, schedule: Q04DX003 (ip), vehicle: saline sonified",97 % of control
same,T/C,"dose: 400.0 mg/kg/injection, schedule: Q01DX009 (ip), vehicle: saline",92 % of control
same,T/C,"dose: 400.0 mg/kg/injection, schedule: Q04DX003 (ip), vehicle: saline sonified",95 % of control
COc1ccccc1/C(=C/c1ccc([N+](=O)[O-])cc1)C(=O)Nc1ccc(S(=O)(=O)F)cc1,T/C,[6],103 % of control
same,T/C,[8],92 % of control
same,T/C,[10],100 % of control
COc1ccccc1-n1c(=O)c(N=Nc2ccc(Br)cc2)c(O)n(-c2ccccc2Cl)c1=S,T/C,"dose: 37.5 mg/kg/injection, schedule: Q01DX001 (ip), vehicle: Klucel (hydroxypropylcellulose) (HPC)",107 % of control
same,T/C,"dose: 75.0 mg/kg/injection, schedule: Q01DX001 (ip), vehicle: Klucel (hydroxypropylcellulose) (HPC)",116 % of control
same,T/C,"dose: 150.0 mg/kg/injection, schedule: Q01DX001 (ip), vehicle: Klucel (hydroxypropylcellulose) (HPC)",98 % of control
O=c1nc(NO)c(Br)cn1C1CCCCO1 (stereo not given),T/C,[12],96 % of control
same,T/C,[13],96 % of control
same,T/C,[14],96 % of control
CCC(C)P(=O)(N1CC1)N1CC1 (stereo not given),T/C,"dose: 2.0 mg/kg/injection, schedule: Q01DX015 (ip), vehicle: carboxymethylcellulose (CMC)",100 % of control
same,T/C,"dose: 4.0 mg/kg/injection, schedule: Q01DX015 (ip), vehicle: carboxymethylcellulose (CMC)",103 % of control
same,T/C,"dose: 8.0 mg/kg/injection, schedule: Q01DX015 (ip), vehicle: carboxymethylcellulose (CMC)",105 % of control
same,T/C,"dose: 16.0 mg/kg/injection, schedule: Q01DX015 (ip), vehicle: carboxymethylcellulose (CMC)",121 % of control
same,T/C,"dose: 32.0 mg/kg/injection, schedule: Q01DX015 (ip), vehicle: carboxymethylcellulose (CMC)",183 % of control
